According to patent US20230365625A1, “METHODS FOR TREATING AND/OR PREVENTING UNDESIRABLE SEQULAE OF NASAL TURBINOPLASTY OR FUNCTIONAL ENDOSCOPIC SINUS SURGERY” (3-D Matrix, Ltd., priority 2022, published 2023):
Where “and” joins values, the source holds several entries; their conditions need not be identical. Equal entries are not always repeated. Entries after “also recorded” stand apart in the source; their conditions may differ.

Key:
[1] = system: mucosa at the operated middle turbinate sites; assay: Histopathology of the surgical site at 6 weeks (H&E, 6 markers of wound healing), sheep model; type: in vivo, Merino sheep
Protocol: Termination—At day 42, the animals were euthanized with standard terminal procedures through an intravenous injection of sodium pentobarbital. Post-termination, the mucosa at the operated middle turbinate sites were excised and prepared via hematoxylin and eosin staining by a veterinary histopathologist using 6 different markers of wound healing as shown in Table 3. [table] Histopathology observations—Vertical incisions through the roof and floor of the nasal cavity were performed during necropsy after endoscopic evaluation. This allowed both lateral nasal walls to be opened outwards from the septum whereby the operated mucosa adjacent to the vomer could be easily identified and excised atraumatically. Specimens were preserved in 10% neutral buffered formalin and transported for hematoxylin and eosin staining and slide preparation. Example specimens are shown in FIGS. 4A and 4B for PuraSinus treated tissue and FIGS. 5A and 5B for FLOSEAL treated tissue. Individual sample observations are presented in Appendix 3.

[2] = system: Functional Endoscopic Sinus Surgery (FESS) surgical wound; type: in vivo, human
Excerpt: Study design—This study was a retrospective chart review of 94 consecutive human patients who underwent FESS and who were operated on by a single surgeon in a single center in Perth, Western Australia. FIGS. 6A and 6B show a flowchart of patients based on extent of surgery and outcomes. Only patients treated with PuraSinus alone (no other hemostatic agent was used) were included in the analysis. Ethics approval was obtained from St John of Good Health Care Human Research Ethics Committee.
Patient population—The study included adult human patients who underwent FESS procedures and also included patients who underwent FESS in combination with nasal surgery (septoplasty and/or turbinoplasty). Both primary and revision cases were included. Patients were discharged the day after surgery with a recommendation to perform saline nasal irrigations no less than four times a day. Patient characteristics, indication for surgery, extent of surgical intervention, and bleeding and adhesion information was recorded.
Surgical categories—Procedures were performed according to the minimally invasive sinus technique (MIST), including combination of maxillary antrostomy, ethmoidectomies, sphenoidotomies and frontal sinus (Draf Ila, or Draf 111), turbinate reduction and/or septoplasty. FESS procedures were categorized into two groups: complete FESS (including all sinuses—maxillary antrostomy, ethmoidectomy, sphenoidotomy, and frontal sinusotomy) or limited FESS (anything less than complete FESS, usually involves antrostomy and ethmoidectomy). The surgical extent was dictated by the patient's condition and the surgeon's clinical judgement.
Material used—PuraSinus (licensed as PuraStat in Australia, 3D-Matrix)/RADA16-I (SEQ ID NO:1) 2.5% w/v in water is a transparent SAP solution supplied sterile in a pre-filled syringe (available in a 3 mL and 5 mL form) ready for use with a thin application nozzle suited for endoscopic catheter administration. The syringe is stored at between 2° C. and 8° C. At completion of the FESS procedure, PuraSinus was applied to the surgical wound in a thin and even layer as close as possible to the bleeding point. A similar application technique has been outlined previously (M. Lee et al., Int. J. Surg. Case Rep. 41: 461-4 (2017)). […] Tissues treated with the hydrogel were visible via endoscope given the gel's transparency.
Outcomes and objectives—The objectives of this study were to evaluate the effectiveness of PuraSinus in rapidly achieving intraoperative hemostasis and to assess the incidence of delayed bleeding ([…]) and synechiae formation via endoscopic observation of the nasal mucosa at follow-up visits. Primary bleeding was defined as bleeding occurring within 24 hours of surgery.
Data analysis—Statistical analysis was performed using descriptive statistics for continuous variables and patient demographics were reported. The rate of successful hemostasis and incidence of synechiae formation were calculated as a proportion of total patients undergoing FESS.
Adhesions—Nasal endoscopic examination of each patient was performed at a first follow-up visit occurring between 7 and 30 days after surgery (median 15 days, mean±SD 14.0±3.7 days). A subsequent follow-up examination of each patient was performed on average on day 42, ranging from 28 to 79 days post-surgery. […] Debridement of the observed synechiae was performed in these cases in the outpatient setting by either suction (n=13) or scissors (n=10). […] Thus, the desired outcome of intraoperative treatment with PuraSinus (SEQ ID NO:1) in achieving recovery without synechiae formation in these patients was nearly 90% (n=84/94). None of the patients who had required additional intervention for hemostasis subsequently presented with adhesion formation.

[3] = in solution before DMEM; RADA16 assumed 2.5% wt/vol, IEIK13 concentration unknown; cited from earlier work
[4] = individual site, 6 weeks, scale 0-3, listed as P
[5] = individual site, 6 weeks, scale −1-1, listed as P

For `CC(=O)N[C@@H](CCCNC(=N)N)C(=O)N[C@@H](C)C(=O)N[C@@H](CC(=O)O)C(=O)N[C@@H](C)C(=O)N[C@@H](CCCNC(=N)N)C(=O)N[C@@H](C)C(=O)N[C@@H](CC(=O)O)C(=O)N[C@@H](C)C(=O)N[C@@H](CCCNC(=N)N)C(=O)N[C@@H](C)C(=O)N[C@@H](CC(=O)O)C(=O)N[C@@H](C)C(=O)N[C@@H](CCCNC(=N)N)C(=O)N[C@@H](C)C(=O)N[C@@H](CC(=O)O)C(=O)N[C@@H](C)C(N)=O` [PuraSinus, Ac-RADARADARADARADA-NH2], the “Angiogenesis (A): number of sites Grade 0” value ([1]; 6 weeks) was 9, the “Angiogenesis (A): number of sites Grade 1” value ([1]; 6 weeks) was 6 and the “Angiogenesis (A): number of sites Grade 2” value ([1]; 6 weeks) was 4. The “Angiogenesis (A): number of sites Grade 3” value ([1]; 6 weeks) was 1, the “Epithelial erosion (EE): number of sites Grade 0” value ([1]; 6 weeks) was 5 and the “Epithelial erosion (EE): number of sites Grade 1” value ([1]; 6 weeks) was 8. For the same molecule, the “Epithelial erosion (EE): number of sites Grade 2” value ([1]; 6 weeks) was 6, the “Epithelial erosion (EE): number of sites Grade 3” value ([1]; 6 weeks) was 1 and the “Goblet cells (GC): number of sites Grade 0” value ([1]; 6 weeks) was 6. The “Goblet cells (GC): number of sites Grade +1” value ([1]; 6 weeks) was 6, the “Goblet cells (GC): number of sites Grade −1” value ([1]; 6 weeks) was 8 and the “Inflammatory infiltrate (II): number of sites Grade 0” value ([1]; 6 weeks) was 3. The “Inflammatory infiltrate (II): number of sites Grade 1” value ([1]; 6 weeks) was 13, the “Inflammatory infiltrate (II): number of sites Grade 2” value ([1]; 6 weeks) was 4 and the “Inflammatory infiltrate (II): number of sites Grade 3” value ([1]; 6 weeks) was 0. For the same molecule, the “Sero-mucous glands (SMC): number of sites Grade 0” value ([1]; 6 weeks) was 14, the “Sero-mucous glands (SMC): number of sites Grade +1” value ([1]; 6 weeks) was 0 and the “Sero-mucous glands (SMC): number of sites Grade −1” value ([1]; 6 weeks) was 6. The “Submucosal fibrosis (SF): number of sites Grade 0” value ([1]; 6 weeks) was 4, the “Submucosal fibrosis (SF): number of sites Grade 1” value ([1]; 6 weeks) was 12 and the “Submucosal fibrosis (SF): number of sites Grade 2” value ([1]; 6 weeks) was 3. The “Submucosal fibrosis (SF): number of sites Grade 3” value ([1]; 6 weeks) was 1, the “Mucosal regeneration / wound healing on histopathology” value ([1]; 6 weeks, result in words) was “favorable outcomes for wound healing enhancement across all 6 metrics; also recorded: enhancement to mucosal regeneration; also recorded: more commonly associated with enhanced mucosal regeneration; also recorded: improved outcome” and the “Angiogenesis (A): Mean score” value ([1]; 6 weeks, scale 0-3) was 0.85. For the same molecule, the “Epithelial erosion (EE): Mean score” value ([1]; 6 weeks, scale 0-3) was 1.15, the “Inflammatory infiltrate (II): Mean score” value ([1]; 6 weeks, scale 0-3) was 1.05 and the “Submucosal fibrosis (SF): Mean score” value ([1]; 6 weeks, scale 0-3) was 1.05. For the same molecule, the “Goblet cells (GC): Mean score” value ([1]; 6 weeks, scale −1-1) was −0.1, the “Sero-mucous glands (SMC): Mean score” value ([1]; 6 weeks, scale −1-1) was −0.3 and the “A (angiogenesis) grade” value [1, 4] was 1 (6×) and 3 and 0 (9×) and 2 (4×). The “EE (epithelial erosion) grade” value [1, 4] was 1 (8×) and 2 (6×) and 0 (5×) and 3, the “II (inflammatory infiltrate) grade” value [1, 4] was 2 (4×) and 1 (13×) and 0 (3×) and the “SF (submucosal fibrosis) grade” value [1, 4] was 1 (12×) and 2 (3×) and 0 (4×) and 3. The “GC (goblet cells) grade” value [1, 5] was −1 (8×) and 1 (6×) and 0 (6×), the “SMC (sero-mucous glands) grade” value [1, 5] was −1 (6×) and 0 (14×) and the 6-week histopathology scores ([1]; result in words, driven by reduced submucosal fibrosis and angiogenesis) was “significantly lower”. For the same molecule, the “Adhesion formation at first follow up visit, patients” value ([2]; 7-30 days after surgery) was 18, the “Persisting adhesions, patients” value ([2]; final outcome, of 23) was 5 and the “Resolved adhesions, patients” value ([2]; final outcome, of 23) was 18. The “Adhesion formation, total patients” value ([2]; full follow-up period, n of 94) was 23, the “Adhesion (synechiae) formation, rate” value ([2]; full follow-up period, of 94 patients) was 24.5% and the “Pain at the surgical site” value ([2]; human, in vivo) was “all patients expressed comfort with no pain”. The “Patients with no adhesions found” value ([2]; n of 94) was 71, the “Adhesion location: Inferior turbinate/septum + medial turbinate/lateral wall, patients” value ([2]; of 23) was 4 and the “Adhesion location: Inferior turbinate/septum, patients” value ([2]; of 23) was 12. For the same molecule, the “Adhesion location: Medial turbinate/lateral wall, patients” value ([2]; of 23) was 7, the “Debridement by scissors (sharp), patients” value ([2]; of 23) was 10 and the “Debridement by suction, patients” value ([2]; of 23) was 13. The “Patients with adhesion formation: Complete FESS” value ([2]; of 23) was 8, the “Patients with adhesion formation: Female” value ([2]; of 23) was 16 and the “Patients with adhesion formation: Limited FESS” value ([2]; of 23) was 15. For the same molecule, the “Patients with adhesion formation: Male” value ([2]; of 23) was 7, the “Patients free of adhesions, rate” value ([2]; second follow-up examination, of 94 patients) was ~90% and 89.4% and the Patients without adhesions ([2]; second follow-up, no adhesions or adhesions easily removed by suction, of 94) was 84 and 84/94. The “Median loss modulus G″” value [3] was 24 Pa and the “Median storage modulus G′” value [3] was 384 Pa.
